Laboratory results published in patent US20240117303A1, “METHODS AND COMPOSITIONS FOR GENERATING HUMAN MIDBRAIN DOPAMINERGIC NEURONS FROM NEURAL PROGENITOR CELLS” (Trailhead Biosystems Inc., priority 2022, published 2024).

How the values were obtained:
[1] = system: stage 1 neural stem cells; assay: HD-DoE 12-factor experiment for stage 2 recipe (first model, FIG. 5-7, 12); type: cell-based, human; settings: for factor contribution: positive impact; for impact on expression of FOXA2 / impact on expression of LMX1A: dynamic profile / model, 12 effectors; for value of FOXA2 in absence of the factor: 10,000 with all factors; for value of LMX1A in absence of the factor: 30,000 with all factors
Description: To further guide the differentiation of midbrain-committed neural stem cells to neural progenitor cells at stage 2, we performed an additional HD-DoE experiment. We thereby obtained additional gene regulatory models that were used for preparation of differentiation protocol. The basis of this was a 12-factor HD-DoE experiment with focus on initiation of differentiation of cells toward midbrain neural progenitor cells for an additional 3 days after termination of stage 1 treatment. Here, we focused on expression of LMX1A and FOXA2 in neural progenitor cells with low to zero expression of GBX2. LMX1A had significant high expression level in the model with value of 47888. Therefore, we used optimization setting for this gene to identify the positive factors. The factors in this experiment included SC79, MK2206, ZM336372, PD0325901, CHIR99021, A 83-01, TTNPB, AGN193109, GW3965, SR9243, Purmorphamine and GSI-XX.
To assess the impact of elimination of each validated factor, we used dynamic profile analysis and compared the expression level of genes of interest in absence of each finalized factor while others are present.
In the stage 2 recipe, each of the six finalized factors were removed while the other five factors were present and the expression levels of FOXA2, LMX1A and GBX2 were assessed, compared to the levels in the presence of all factors. According to the first experiment model, the absence of TTNPB lead to a rise of GBX2 expression, while the value of FOXA2 and LMX1A reduced drastically from 10,000 to 0 and 30,000 to 15,000, respectively. The absence of A 83-01 reduced the expression of FOXA2 from 10,000 to 7000, however, as expected, the value of LMX1A increased from 30,000 to 40,000. […] According to the second experiment model, the absence of BMP7 and MK2206 both reduced the level of FOXA2 while increasing the value of LMX1A, with BMP7 as the main effector that led to 0 expression of FOXA2.

[2] = system: stage 2 neural progenitors; assay: HD-DoE 12-factor model for stage 3 recipe (FIG. 19-23, 29); type: cell-based, human
Description: To develop the neuronal differentiation recipes, the impact of various agonist and antagonists (effectors) on maturation of MB neural progenitors was investigated using the HD-DoE method described in Example 1. These effectors were chosen based on available literature on developmental biology, differentiation of stem cells as well as mouse and human single cell RNA-seq data from midbrain neurons at the time.
To engineer the recipe of stage 3 of differentiation, cells were first cultured in the stage 1 and stage 2 media as described herein, then they were treated with combinations of 8 or 12 factors for 3 days and the gene expression of cells in each condition was modeled. To guide the cells towards a subtype of midbrain dopaminergic neurons that reside in Substantia Nigra pars compacta (SNc) region of the brain, neural progenitors need to be SOX6^+ (Pereira et al. (2021) Cell Rep. 37:109975 Oosterveen et al. (2021) Stem Cell Reports 16:2718-2735 Poulin et al. (2020) Trends Neurosci. 43:155-169). CORIN, NGN2 and MSX1 are other markers involved in neurogenesis of dopaminergic neurons originating from floorplate region of developing midbrain (Wang et al. (2020) Cells 9:1489; Samata et al. (2016) Nat Commun. 7:13097; Ono et al. (2007) Development 134:3213-3225; Prakash et al. (2006) J. Physiol. 575:403410).
Therefore, we focused on maximizing expression of SOX6, CORIN, NGN2 and MSX1 in modeling experiments. One of the 12-factor models, the results of which are shown in FIG. 19, including LDN193189, AGN193109, BMP7, TTNPB, PD0325901, A8301, MHY1485, CHIR99021, XAV939, SANT-1, Purmorphamine and MK2206, provided a combination set that could maximize expression level of CORIN to more than 2000.
To assess the impact of elimination of each validated factor identified in Example 5 for the stage 3 and stage 4 recipes, we used dynamic profile analysis and compared the expression level of genes of interest in absence of each finalized factor while others are present.
In the stage 3 recipe, each of the finalized factors were removed in their respective models while other factors were present and the expression level of genes of interest was assessed compared to presence of all factors. When AGN193109 was excluded, level of all CORIN, KCNJ6, MSX1 and SOX6 decreased from 900 to 450, 50 to 35, 140 to 110 and 105 to 60, respectively. […] When PD0325901 was removed, expression levels of CORIN and KCNJ6 increased to 1200 and 70 while levels of MSX1 and SOX6 decreased to 105 and 20. In the absence of CHIR99021, the expression level of CORIN was again increased to 1200 while the level of KCNJ6 and MSX1 dropped to 50 and 115. […] Therefore, it was decided to include this compound in the final recipe. […] Therefore, CHIR99021 was also included in the final recipe.

[3] = stage 2 recipe, first experiment model
[4] = model optimized for maximum expression of FOXA2
[5] = model optimized for MSX1, negative regulatory effect
[6] = model optimized for SOX6, negative impact

Row | Structure (SMILES) | factor contribution ([1]; model optimized for LMX1A) | impact on expression of FOXA2 [1] | impact on expression of LMX1A [1] | value of FOXA2 in absence of the factor [1, 3] | value of LMX1A in absence of the factor [1, 3] | factor contribution [1, 4] | factor contribution [2, 5] | factor contribution [2, 6] | other results
1 | Cc1ccc(C2=CCC(C)(C)c3ccc(C#Cc4ccc(C(=O)O)cc4)cc32)cc1 [AGN193109] | < 1 | – | – | – | – | – | – | – | impact on expression of KCNJ6 ([2]; dynamic profile, 12 effectors): positive impact; factor contribution ([2]; model maximizing expression of CORIN, positive regulatory impact): 20.3; factor contribution ([2]; model optimized for maximum expression of KCNJ6, positive regulators): 17; factor contribution ([2]; model optimized for maximum expression of SOX6, positive impact): 26.1; expression level of KCNJ6 in absence of the factor ([2]; stage 3 recipe, other factors present, 50 with all factors): 35; expression level of SOX6 in absence of the factor ([2]; stage 3 recipe, other factors present, 105 with all factors): 60; expression level of MSX1 in absence of the factor ([2]; stage 3 recipe, other factors present, 140 with all factors): 110; expression level of CORIN in absence of the factor ([2]; stage 3 recipe, other factors present, 900 with all factors): 450
2 | O=C(O)Cc1cccc(OCCCN(Cc2cccc(C(F)(F)F)c2Cl)CC(c2ccccc2)c2ccccc2)c1 [GW3965] | 5.4 | positive impact | positive impact | 17,000 | 10,000 | – | – | – | –
3 | Cc1cccc(-c2nn(C(=S)Nc3ccccc3)cc2-c2ccnc3ccccc23)n1 [A 83-01] | – | positive impacts | – | 7000 | 40,000 | 6.7 | – | – | level of GBX2 ([1]; addition of A 83-01 at 300 nM, dynamic profile): ~0
4 | Oc1nc(-c2ccc(C(F)(F)F)cc2)nc2c1CSCC2 [XAV939] | – | – | – | – | – | – | 11.2 | 10.8 | factor contribution ([2]; model maximizing expression of CORIN, negative impact): 13.5
5 | C/C(=C\c1ccc(C(=O)O)cc1)c1ccc2c(c1)C(C)(C)CCC2(C)C [TTNPB] | 19.5 | – | positive impact | 0 | 15,000 | 10.7 | 15.5 | 9.5 | GBX2 expression in absence of the factor [1, 3]: rise
